Source: patent US20230212788A1, “NEW METHOD FOR AUTOMATED ON-DEMAND BIOMOLECULAR ARRAY SYNTHESIS” (TECHNISCHE UNIVERSITAT DRESDEN, priority 2020, published 2023)

How the values were obtained:
cyclophilin A (CypA) = cyclophilin A (CypA) (Homo sapiens, UniProt P62937); conditions: array probed by fluorescently labelled CypA, FIG. 11
streptavidin [1] = molecular target: T1, streptavidin (Streptomyces avidinii, UniProt P22629); conditions: order of magnitude only; cited from earlier work
streptavidin [2] = molecular target: T1, streptavidin; assay: Ligand array probed by fluorescently labelled streptavidin; format: binding; conditions: FIG. 10
Text: To increase the coupling yield, each coupling step was repeated two times. Same procedure was used in all amide bond formation reactions. After a capping step using 5% acetic anhydride/2% DIPEA, Fmoc was deprotected by immersing the glass slide in piperidine solution (DMF:ethanol 1:1). All amino groups not in the spotted area were acetylated in the first capping step. Therefore, no amide bond formation would be possible in these area in the following synthesis. The array was then probed by fluorescently labelled streptavidin or CypA (FIGS. 10 and 11). […] At this screening condition, the protein cannot distinguish between pM and low nM binders, while it can distinguish these two strong binders from the weaker µM binder iminobiotin.

L929 cells = assay: Adhesion of L929 cells to peptides synthesized as array; format: cell-based; conditions: array without removing the lipophilic group, FIG. 16
Text: There were synthesized cell adhesive peptide RGDSP (SEQ ID NO: 180) and its mutant GGDSP (SEQ ID NO: 179) as array and investigated their effects on the adhesion to L929 cells. As the chitosan hydrogel coating provides a favorable surface for the adhesion of many types of cells, including L929 cells, the array has been synthesized without removing the lipophilic group. […] (FIG. 16) Therefore, the array technology can be used not only for protein-based high throughput screening, but also for developing novel biomaterials as well as cellular assays.

calcineurin = assay: Array incubated with fluorescently labelled calcineurin; format: binding; conditions: FIG. 13
Procedure: In order to probe protein-peptide interactions, a peptide was synthesized on the amphiphilic surface. The known calcineurin-binding peptide PVIVIT (SEQ ID NO: 13) and CsA1-COOH were synthesized on the surface. The glass slide was then incubated with fluorescently labelled calcineurin. […] Therefore, the on-demand peptide array synthesis technology can be used to investigate specific protein-peptide interaction.

T1 sequence (P22629 25-183): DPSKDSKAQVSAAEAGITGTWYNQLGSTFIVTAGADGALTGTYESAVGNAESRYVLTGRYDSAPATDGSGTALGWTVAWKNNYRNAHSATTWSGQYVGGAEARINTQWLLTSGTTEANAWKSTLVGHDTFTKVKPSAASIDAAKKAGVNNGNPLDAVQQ
Sequence of cyclophilin A (CypA) (P62937 whole entry, species assumed): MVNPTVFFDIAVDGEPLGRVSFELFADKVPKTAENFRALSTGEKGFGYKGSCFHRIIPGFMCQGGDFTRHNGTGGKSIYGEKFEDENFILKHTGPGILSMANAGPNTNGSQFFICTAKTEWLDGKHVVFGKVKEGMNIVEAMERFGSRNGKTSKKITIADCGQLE

| Compound | Kd values / dissociation constant to streptavidin (streptavidin [1]) | adhesion to L929 cells (L929 cells) | also measured |
| --- | --- | --- | --- |
| O=C(O)CCCC[C@@H]1SC[C@@H]2NC(=O)N[C@@H]21 [Biotin, biotin] |  |  | binding of CypA to spot (cyclophilin A (CypA)): not |
| C[C@@H]1NC(=O)N[C@@H]1CCCCCC(=O)O [desthiobiotin] | low nM |  |  |
| N=C1N[C@H]2[C@H](CS[C@H]2CCCCC(=O)O)N1 [iminobiotin] | µM |  | fluorescent signal on spot (streptavidin [2]): much weaker than those of biotin and desthiobiotin |
| GGDSP: mutant of cell adhesive peptide RGDSP |  | poor adhesion |  |
| PVIVIT: known calcineurin-binding peptide PVIVIT |  |  | binding of calcineurin to spot (calcineurin): can bind specifically |
| RGDSP: cell adhesive peptide RGDSP |  | strong adhesion |  |
